Experimental data reported in the supplement of paper PMC13207355.

Tests used:
Details in all cases: exposure time: 72 h
[1] = system: E34 (patient-derived glioblastoma stem cells of proneural subtype); assay: phenotypic distance (Euclidean, principal components) from DMSO controls (arbitrary units); higher = stronger morphological change
[2] = system: E28 (patient-derived glioblastoma stem cells of classical subtype); assay: as above
[3] = system: E31 (patient-derived glioblastoma stem cells of proneural subtype); assay: as above
[4] = system: E21 (patient-derived glioblastoma stem cells of mesenchymal subtype); assay: as above
[5] = system: E57 (patient-derived glioblastoma stem cells of mesenchymal subtype); assay: as above
[6] = system: E13 (patient-derived glioblastoma stem cells of classical subtype); assay: as above
[7] = system: FT3469 (normal neural stem cell line); assay: as above
[8] = system: E34; assay: surviving fraction (nuclei count normalised to DMSO); higher = more cells surviving (less toxic)
[9] = system: E28; assay: as above
[10] = system: E31; assay: as above
[11] = system: E21; assay: as above
[12] = system: E57; assay: as above
[13] = system: E13; assay: as above
[14] = system: FT3469; assay: as above
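Wherever phenotypic distance (Euclidean, principal components) from DMSO controls is given: cell Painting imaging in 384-well plates, CellProfiler features reduced to at least 20 principal components, Euclidean distance versus same-plate DMSO vehicle wells (0.1% v/v), median over six images per well.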
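Wherever surviving fraction (nuclei count normalised to DMSO) is given: nuclei counted by high-content imaging of Hoechst-stained cells in laminin-coated 384-well plates, relative to 0.1% DMSO vehicle wells, with staurosporine as cell-death control.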

C#C[C@]1(O)CC[C@H]2[C@@H]3CCC4=CCCC[C@@H]4[C@H]3CC[C@@]21C [Lynestrenol]
Details	phenotypic distance	surviving fraction
[1], 4.1 nM	0.505	–
[1], 12.3 nM	0.89	–
[1], 37 nM	0.743	–
[1], 111.1 nM	0.994	–
[1], 333.3 nM	0.472	–
[1], 1000 nM	0.846	–
[1], 3000 nM	0.609	–
[2], 4.1 nM	0.488	–
[2], 12.3 nM	0.735	–
[2], 37 nM	0.493	–
[2], 111.1 nM	0.306	–
[2], 333.3 nM	0.694	–
[2], 1000 nM	0.828	–
[2], 3000 nM	0.566	–
[3], 4.1 nM	0.539	–
[3], 12.3 nM	0.803	–
[3], 37 nM	0.671	–
[3], 111.1 nM	0.989	–
[3], 333.3 nM	0.806	–
[3], 1000 nM	0.394	–
[3], 3000 nM	1.33	–
[4], 4.1 nM	0.397	–
[4], 12.3 nM	0.584	–
[4], 37 nM	0.589	–
[4], 111.1 nM	0.676	–
[4], 333.3 nM	0.662	–
[4], 1000 nM	0.692	–
[4], 3000 nM	1.35	–
[5], 4.1 nM	0.911	–
[5], 12.3 nM	0.621	–
[5], 37 nM	0.561	–
[5], 111.1 nM	0.889	–
[5], 333.3 nM	0.765	–
[5], 1000 nM	0.843	–
[5], 3000 nM	0.439	–
[6], 4.1 nM	0.399	–
[6], 12.3 nM	0.621	–
[6], 37 nM	0.422	–
[6], 111.1 nM	0.821	–
[6], 333.3 nM	0.697	–
[6], 1000 nM	0.59	–
[6], 3000 nM	1.03	–
[7], 4.1 nM	0.64	–
[7], 12.3 nM	1.14	–
[7], 37 nM	0.738	–
[7], 111.1 nM	1.23	–
[7], 333.3 nM	0.567	–
[7], 1000 nM	0.796	–
[7], 3000 nM	0.874	–
[8], 4.1 nM	–	0.966
[8], 12.3 nM	–	0.988
[8], 37 nM	–	0.917
[8], 111.1 nM	–	1.24
[8], 333.3 nM	–	1.03
[8], 1000 nM	–	0.979
[8], 3000 nM	–	0.946
[9], 4.1 nM	–	1.06
[9], 12.3 nM	–	1.05
[9], 37 nM	–	0.924
[9], 111.1 nM	–	1.04
[9], 333.3 nM	–	1.09
[9], 1000 nM	–	1.16
[9], 3000 nM	–	1.16
[10], 4.1 nM	–	0.991
[10], 12.3 nM	–	1.12
[10], 37 nM	–	0.813
[10], 111.1 nM	–	1.26
[10], 333.3 nM	–	0.895
[10], 1000 nM	–	1.07
[10], 3000 nM	–	1.09
[11], 4.1 nM	–	1.03
[11], 12.3 nM	–	0.998
[11], 37 nM	–	1.01
[11], 111.1 nM	–	1.08
[11], 333.3 nM	–	1.07
[11], 1000 nM	–	0.975
[11], 3000 nM	–	1.08
[12], 4.1 nM	–	1.2
[12], 12.3 nM	–	1.03
[12], 37 nM	–	1.04
[12], 111.1 nM	–	1.06
[12], 333.3 nM	–	1.08
[12], 1000 nM	–	1.17
[12], 3000 nM	–	1.08
[13], 4.1 nM	–	0.994
[13], 12.3 nM	–	0.901
[13], 37 nM	–	1.03
[13], 111.1 nM	–	1.05
[13], 333.3 nM	–	1.03
[13], 1000 nM	–	1.04
[13], 3000 nM	–	0.88
[14], 4.1 nM	–	1.1
[14], 12.3 nM	–	1.19
[14], 37 nM	–	0.984
[14], 111.1 nM	–	1.26
[14], 333.3 nM	–	1.07
[14], 1000 nM	–	1.13
[14], 3000 nM	–	1.06

O=c1c2ccccc2[se]n1-c1ccccc1 [Ebselen]
Details	phenotypic distance	surviving fraction
[1], 4.11523 nM	0.415	–
[1], 12.34567901 nM	0.549	–
[1], 37.037 nM	0.806	–
[1], 111.1111111 nM	0.859	–
[1], 333.333 nM	0.532	–
[1], 1000 nM	1.03	–
[1], 3000 nM	1.91	–
[2], 4.11523 nM	0.754	–
[2], 12.34567901 nM	1.01	–
[2], 37.037 nM	0.601	–
[2], 111.1111111 nM	0.529	–
[2], 333.333 nM	0.764	–
[2], 1000 nM	0.79	–
[2], 3000 nM	2.56	–
[3], 4.11523 nM	0.71	–
[3], 12.34567901 nM	0.778	–
[3], 37.037 nM	0.875	–
[3], 111.1111111 nM	0.398	–
[3], 333.333 nM	0.33	–
[3], 1000 nM	0.763	–
[3], 3000 nM	3.3	–
[4], 4.11523 nM	0.63	–
[4], 12.34567901 nM	1.29	–
[4], 37.037 nM	0.667	–
[4], 111.1111111 nM	1.02	–
[4], 333.333 nM	0.791	–
[4], 1000 nM	0.556	–
[4], 3000 nM	1.89	–
[5], 4.11523 nM	0.316	–
[5], 12.34567901 nM	0.564	–
[5], 37.037 nM	0.5	–
[5], 111.1111111 nM	0.407	–
[5], 333.333 nM	0.482	–
[5], 1000 nM	1	–
[5], 3000 nM	4.42	–
[6], 4.11523 nM	0.891	–
[6], 12.34567901 nM	0.779	–
[6], 37.037 nM	0.477	–
[6], 111.1111111 nM	0.532	–
[6], 333.333 nM	0.51	–
[6], 1000 nM	0.854	–
[6], 3000 nM	1.59	–
[7], 4.11523 nM	0.678	–
[7], 12.34567901 nM	0.843	–
[7], 37.037 nM	0.785	–
[7], 111.1111111 nM	0.587	–
[7], 333.333 nM	1.06	–
[7], 1000 nM	0.639	–
[7], 3000 nM	4.47	–
[8], 4.11523 nM	–	0.901
[8], 12.34567901 nM	–	1.1
[8], 37.037 nM	–	0.955
[8], 111.1111111 nM	–	1
[8], 333.333 nM	–	1.04
[8], 1000 nM	–	1.05
[8], 3000 nM	–	0.512
[9], 4.11523 nM	–	0.974
[9], 12.34567901 nM	–	1.18
[9], 37.037 nM	–	1.14
[9], 111.1111111 nM	–	1.12
[9], 333.333 nM	–	1.15
[9], 1000 nM	–	1.1
[9], 3000 nM	–	0.0788
[10], 4.11523 nM	–	0.993
[10], 12.34567901 nM	–	0.922
[10], 37.037 nM	–	1.2
[10], 111.1111111 nM	–	1.12
[10], 333.333 nM	–	1.13
[10], 1000 nM	–	0.905
[10], 3000 nM	–	0.127
[11], 4.11523 nM	–	1.06
[11], 12.34567901 nM	–	1.15
[11], 37.037 nM	–	1.11
[11], 111.1111111 nM	–	1.08
[11], 333.333 nM	–	1.1
[11], 1000 nM	–	1.14
[11], 3000 nM	–	0.582
[12], 4.11523 nM	–	1.04
[12], 12.34567901 nM	–	0.962
[12], 37.037 nM	–	1.01
[12], 111.1111111 nM	–	1.05
[12], 333.333 nM	–	0.995
[12], 1000 nM	–	1.04
[12], 3000 nM	–	0.343
[13], 4.11523 nM	–	1.18
[13], 12.34567901 nM	–	1.04
[13], 37.037 nM	–	1.05
[13], 111.1111111 nM	–	1.07
[13], 333.333 nM	–	1.16
[13], 1000 nM	–	1.11
[13], 3000 nM	–	0.579
[14], 4.11523 nM	–	1.14
[14], 12.34567901 nM	–	1.14
[14], 37.037 nM	–	1.11
[14], 111.1111111 nM	–	1.15
[14], 333.333 nM	–	1.32
[14], 1000 nM	–	0.997
[14], 3000 nM	–	0.189
